# Results: US20080119515A1, “Heterocyclic Kinase Inhibitors: Methods of Use and Synthesis” (priority 2003, published 2008)
# Molecular target: T1, ZAP-70 (Homo sapiens, UniProt P43403)
# T1 sequence (P43403 1-619): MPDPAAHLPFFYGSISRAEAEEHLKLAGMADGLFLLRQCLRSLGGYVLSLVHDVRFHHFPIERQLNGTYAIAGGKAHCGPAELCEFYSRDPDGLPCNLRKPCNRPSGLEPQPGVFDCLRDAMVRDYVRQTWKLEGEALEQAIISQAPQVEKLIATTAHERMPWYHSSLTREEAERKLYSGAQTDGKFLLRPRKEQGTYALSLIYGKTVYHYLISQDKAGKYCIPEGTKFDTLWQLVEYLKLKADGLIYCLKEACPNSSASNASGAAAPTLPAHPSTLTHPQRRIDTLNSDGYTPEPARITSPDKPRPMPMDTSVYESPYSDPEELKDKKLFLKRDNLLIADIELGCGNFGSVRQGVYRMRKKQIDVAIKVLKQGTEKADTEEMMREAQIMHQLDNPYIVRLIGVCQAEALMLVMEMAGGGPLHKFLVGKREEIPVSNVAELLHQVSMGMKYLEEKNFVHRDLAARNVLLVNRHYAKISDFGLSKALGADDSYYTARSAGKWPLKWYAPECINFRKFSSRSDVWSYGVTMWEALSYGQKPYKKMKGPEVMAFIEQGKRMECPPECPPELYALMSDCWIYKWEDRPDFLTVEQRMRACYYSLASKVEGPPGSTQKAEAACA
# Assay: DELFIA assay (ZAP-70 kinase, phosphorylation of biotinylated poly(glu,tyr))
# Assay type: biochemical
# Conditions: ZAP-70 DELFIA, class symbols; read-out: Activity (IC50 in vitro)
# Procedure, shortened: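 3.1 nM ZAP-70 pre-incubated 10 min at room temperature with compound ([…]) and 62.5 nM biotinylated poly(glu,tyr) in 62.5 mM Mops pH 7.0, 12.5 mM MgCl2, 12.5% glycerol, 6.25% DMSO (pre-incubation concentrations); ATP added from 5 mM stock, 30 min reaction, EDTA stop. Phosphorylation read by DELFIA europium anti-phosphotyrosine fluorescence (340/615).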
row,SMILES,IC50
1,N#Cc1ccc(-c2ccc3nc(NCc4cc(Cl)ccc4F)cc(C(=O)N4CCC[C@H]4CN4CCCC4)c3c2)cc1 [Compound 230],> 10 µM
2,O=C(c1cc(NCc2ccc(C(F)(F)F)cc2)nc2ccc(C#Cc3ccccc3)cc12)N1CCC[C@H]1CN1CCCC1 [Compound 281],< 1 µM
3,O=C(c1cc(CCc2ccc(C(F)(F)F)cc2)nc2ccc(-c3ccc4c(c3)OCO4)cc12)N1CCC[C@H]1CN1CCCC1 [Compound 137],1 to 10 µM
4,CNC[C@@H]1CCCN1C(=O)c1cc(NCc2ccc(C(F)(F)F)cc2)nc2ccc(-c3ccc4c(c3)OCO4)cc12 [Compound 357],1 to 10 µM
5,O=C(c1cc(NCc2ccc(Cl)cc2)nc2ccc(-c3ccc4c(c3)OCO4)cc12)N1CC2CC2[C@H]1CN1CCCC1 (some centres unmarked) [Compound 146],1 to 10 µM
6,C[C@H]1CCN(C(=O)c2cc(NCc3ccc(Cl)cc3)nc3ccc(-c4ccc5c(c4)OCO5)cc23)[C@@H]1CN1CCCC1 [Compound 148],1 to 10 µM
7,O=C(c1cc(NCc2ccc(C(F)(F)F)cc2)nc2ccc(-c3ccc4c(c3)OCO4)cc12)N1CCC[C@H]1CO [Compound 362],> 10 µM
8,O=C(c1cc(NCc2ccc(C(F)(F)F)cc2)nc2ccc(-c3cccc(C(F)(F)F)c3)cc12)N1CCC[C@H]1CN1CCCC1 [Compound 295],1 to 10 µM
9,O=C(c1cc(CCc2ccc(-c3ccccc3)cc2)nc2ccc(-c3ccc4c(c3)OCO4)cc12)N1CCC[C@H]1CN1CCCC1 [Compound 393],< 1 µM
10,CC(C)N(C)C[C@@H]1CCCN1C(=O)c1cc(NCc2ccccc2)nc2ccc(-c3ccc4c(c3)OCO4)cc12 [Compound 84],> 10 µM
11,N#Cc1ccc(-c2ccc3nc(NCc4c(F)cccc4F)cc(C(=O)N4CCC[C@H]4CN4CCCC4)c3c2)cc1 [Compound 312],1 to 10 µM
12,N#Cc1ccc(-c2ccc3nc(NCc4ccc(F)cc4Cl)cc(C(=O)N4CCC[C@H]4CN4CCCC4)c3c2)cc1 [Compound 250],> 10 µM
13,O=C(c1cc(NCc2ccc(C(F)(F)F)cc2)nc2ccc(-c3cncc4ccccc34)cc12)N1CCC[C@H]1CN1CCCC1 [Compound 335],> 10 µM
14,O=C(c1cc(NCc2ccc(C(F)(F)F)cc2)nc2ccc(-c3ccc(OC(F)(F)F)cc3)cc12)N1CCC[C@H]1CN1CCCC1 [Compound 309],1 to 10 µM
15,O=C(c1cc(NCc2ccc(F)cc2F)nc2ccc(-c3ccc4c(c3)OCO4)cc12)N1CCC[C@H]1CN1CCCC1 [Compound 46],< 1 µM
16,O=C(c1cc(CCc2ccc(F)cc2)nc2ccc(-c3ccc4c(c3)OCO4)cc12)N1CCC[C@H]1CN1CCCC1 [Compound 135],1 to 10 µM
17,O=C(c1cc(NCc2ccc(C(F)(F)F)cc2)nc2ccc(-c3ccc4c(c3)OCC4)cc12)N1CCC[C@H]1CN1CCCC1 [Compound 280],< 1 µM
18,O=C(c1cc(NCc2ccc(F)cc2)nc2ccc(-c3ccc4c(c3)OCO4)cc12)N1CCC[C@H]1CN1CCCC1 [Compound 30],< 1 µM
19,C[C@H](c1cccc2ccccc12)N(C)c1cc(C(=O)N2CCC[C@H]2CN2CCCC2)c2cc(-c3ccc(C#N)cc3)ccc2n1 [Compound 218],> 10 µM
20,COc1cc(C(=O)N2CCC[C@H]2CN2CCCC2)cc(-c2ccc3c(c2)OCO3)n1 [Compound 6],> 10 µM
21,O=C(c1cc(NCc2ccncc2)nc2ccc(-c3ccc4c(c3)OCO4)cc12)N1CCC[C@H]1CN1CCCC1 [Compound 38],1 to 10 µM
22,O=C(Nc1ccccc1)c1cc(C(=O)N2CCC[C@H]2CN2CCCC2)c2cc(-c3ccc4c(c3)OCO4)ccc2n1 [Compound 144],1 to 10 µM
23,O=C(c1cc(NCc2ccc(C(F)(F)F)cc2)nc2ccc(-c3cccnc3)cc12)N1CCC[C@H]1CN1CCCC1 [Compound 334],> 10 µM
24,O=C(c1cc(NCc2ccc(C(F)(F)F)cc2)nc2ccc(-c3cc4ccccc4s3)cc12)N1CCC[C@H]1CN1CCCC1 [Compound 298],1 to 10 µM
25,N#Cc1ccc(-c2ccc3nc(NCc4ccccc4Cl)cc(C(=O)N4CCC[C@H]4CN4CCCC4)c3c2)cc1 [Compound 169],> 10 µM
26,CN(CCc1ccccc1)c1cc(C(=O)N2CCC[C@H]2CN2CCCC2)cc(/C=C/c2ccc(C(F)(F)F)cc2)n1 [Compound 366],1 to 10 µM
27,N#Cc1ccc(-c2ccc3nc(NCc4cccc(C(F)(F)F)c4)cc(C(=O)N4CCC[C@H]4CN4CCCC4)c3c2)cc1 [Compound 157],> 10 µM
28,Cc1ccsc1-c1ccc2nc(NCc3ccc(C(F)(F)F)cc3)cc(C(=O)N3CCC[C@H]3CN3CCCC3)c2c1 [Compound 337],> 10 µM
29,O=C(c1cc(NCc2ccc(C(F)(F)F)cc2)nc2cc(-c3cc(F)cc(F)c3)ccc12)N1CCC[C@H]1CN1CCCC1 [Compound 121],1 to 10 µM
